Laboratory results taken from US20070123546A1, “2-amino-7,8-dihydro-6H-pyrido[4,3-d]pyrimidin-5-ones” (Chiron Corporation, priority 2005, published 2007).
pIC50: −log10 of the molar value.

Molecular target: His-tagged N-terminal ATP binding domain (amino acid residues 9-236) of HSP90α (Homo sapiens, UniProt P07900)
Test: HSP90 inhibitor binding potency: TRF competition binding assay
Settings: Table 3; competition with biotinylated radicicol
Summary of the method: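 Competition against biotinylated radicicol for binding to the His-tagged 9-236 ATP domain of HSP90α: 2 h, room temperature, HEPES/MgCl2/KCl/BSA buffer. Streptavidin capture, then europium-labeled anti-His antibody and enhancement solution; europium counts give IC50.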

Row | pIC50 | Structure (SMILES)
1 | > 5.00 | Cc1nc(N)nc2c1C(=O)N(Cc1ccccc1)[C@@H](c1ccc(F)cc1-c1cccnc1)C2 [Compound 140, (R)-2-Amino-6-benzyl-7-(4-fluoro-2-pyridin-3-yl-phenyl)-4-methyl-7,8-dihydro-6H-pyrido[4,3-d]pyrimidin-5-one]
2 | < 5.00 | COc1ncc(-c2cc(F)ccc2[C@H]2Cc3nc(N)nc(C)c3C(=O)N2Cc2ccccc2)c(OC)n1 [Compound 141, (R)-2-Amino-6-benzyl-7-[2-(2,4-dimethoxy-pyrimidin-5-yl)-4-fluoro-phenyl]-4-methyl-7,8-dihydro-6H-pyrido[4,3-d]pyrimidin-5-one]
3 | < 5.00 | Cc1ccc(-c2cc(F)ccc2[C@H]2Cc3nc(N)nc(C)c3C(=O)N2Cc2ccccc2)c(F)c1 [Compound 142, (R)-2-Amino-6-benzyl-7-(5,2′-difluoro-4′-methyl-biphenyl-2-yl)-4-methyl-7,8-dihydro-6H-pyrido[4,3-d]pyrimidin-5-one]
4 | > 5.00 | Cc1nc(N)nc2c1C(=O)N(Cc1ccccc1)[C@@H](c1ccc(F)cc1-c1cccnc1F)C2 [Compound 143, (R)-2-Amino-6-benzyl-7-[4-fluoro-2-(2-fluoro-pyridin-3-yl)-phenyl]-4-methyl-7,8-dihydro-6H-pyrido[4,3-d]pyrimidin-5-one]
5 | < 5.00 | COc1cccc(-c2cc(F)ccc2[C@H]2Cc3nc(N)nc(C)c3C(=O)N2Cc2ccccc2)c1F [Compound 144, (R)-2-Amino-6-benzyl-7-(5,2′-difluoro-3′-methoxy-biphenyl-2-yl)-4-methyl-7,8-dihydro-6H-pyrido[4,3-d]pyriniidin-5-one]
6 | > 5.00 | COc1ncc(-c2cc(F)ccc2[C@H]2Cc3nc(N)nc(C)c3C(=O)N2)nc1OC [Compound 145, 2-Amino-7-[2-(5,6-dimethoxy-pyrazin-2-yl)-4-fluoro-phenyl]-4-methyl-7,8-dihydro-6H-pyrido[4,3-d]pyrimidin-5-one]
7 | > 5.00 | COc1cncc(-c2cc(F)ccc2[C@H]2Cc3nc(N)nc(C)c3C(=O)N2CCC(C)C)n1 [Compound 146, (R)-2-Amino-7-[4-fluoro-2-(6-methoxy-pyrazin-2-yl)-phenyl]-4-methyl-6-(3-methyl-butyl)-7,8-dihydro-6H-pyrido[4,3-d]pyrimidin-5-one]
8 | > 5.00 | COc1ncc(-c2cc(F)ccc2[C@H]2Cc3nc(N)nc(C)c3C(=O)N2CCC(C)C)nc1OC [Compound 147, (R)-2-Amino-7-[-(5,6-dimethoxy-pyrazin-2-yl)-4-fluoro-phenyl]-4-methyl-6-(3-methyl-butyl)-7,8-dihydro-6H-pyrido[4,3-d]pyrimidin-5-one]
9 | < 5.00 | Cc1nc(N)nc2c1C(=O)N(CCC(C)C)[C@@H](c1ccc(F)cc1Br)C2 [Compound 148, (R)-2-Amino-7-(2-bromo-4-fluoro-phenyl)-4-methyl-6-(3-methyl-butyl)-7,8-dihydro-6H-pyrido[4,3-d]pyrimidin-5-one]
10 | < 5.00 | Cc1nc(N)nc2c1C(=O)N(CC(C)C)[C@@H](c1ccc(F)cc1Br)C2 [Compound 149, (R)-2-Amino-7-(2-bromo-4-fluoro-phenyl)-6-isobutyl-4-methyl-7,8-dihydro-6H-pyrido[4,3-d]pyrimidin-5-one]
11 | > 5.00 | COc1cccc(-c2cc(F)ccc2[C@H]2Cc3nc(N)nc(C)c3C(=O)N2CCC(C)C)n1 [Compound 150, (R)-2-Amino-7-[4-fluoro-2-(6-methoxy-pyridin-2-yl)-phenyl]-4-methyl-6-(3-methyl-butyl)-7,8-dihydro-6H-pyrido[4,3-d]pyrimidin-5-one]
12 | > 5.00 | Cc1nc(N)nc2c1C(=O)N(CCC(C)C)[C@@H](c1ccc(F)cc1-c1cccnc1F)C2 [Compound 151, (R)-2-Amino-7-[4-fluoro-2-(2-fluoro-pyridin-3-yl)-phenyl]-4-methyl-6-(3-methyl-butyl)-7,8-dihydro-6H-pyrido[4,3-d]pyrimidin-5-one]
13 | > 5.00 | COc1ncccc1-c1cc(F)ccc1[C@H]1Cc2nc(N)nc(C)c2C(=O)N1CCC(C)C [Compound 152, (R)-2-Amino-7-[4-fluoro-2-(2-methoxy-pyridin-3-yl)-phenyl]-4-methyl-6-(3-methyl-butyl)-7,8-dihydro-6H-pyrido[4,3-d]pyrimidin-5-one]
14 | > 5.00 | COc1ccncc1-c1cc(F)ccc1[C@H]1Cc2nc(N)nc(C)c2C(=O)N1CCC(C)C [Compound 153, (R)-2-Amino-7-[4-fluoro-2-(4-methoxy-pyridin-3-yl)-phenyl]-4-methyl-6-(3-methyl-butyl)-7,8-dihydro-6H-pyrido[4,3-d]pyrimidin-5-one]
15 | > 5.00 | COc1cncc(-c2cc(F)ccc2[C@H]2Cc3nc(N)nc(C)c3C(=O)N2CC(C)C)n1 [Compound 154, (R)-2-Amino-7-[4-fluoro-2-(6-methoxy-pyrazin-2-yl)-phenyl]-6-isobutyl-4-methyl-7,8-dihydro-6H-pyrido[4,3-d]pyrimidin-5-one]
16 | > 5.00 | COc1cccc(-c2cc(F)ccc2[C@H]2Cc3nc(N)nc(C)c3C(=O)N2CC(C)C)n1 [Compound 155, (R)-2-Amino-7-[4-fluoro-2-(6-methoxy-pyridin-2-yl)-phenyl]-6-isobutyl-4-methyl-7,8-dihydro-6H-pyrido[4,3-d]pyrimidin-5-one]
17 | > 5.00 | COc1ncc(-c2cc(F)ccc2[C@H]2Cc3nc(N)nc(C)c3C(=O)N2CC(C)C)nc1OC [Compound 156, (R)-2-Amino-7-[2-(5,6-dimethoxy-pyrazin-2-yl)-4-fluoro-phenyl]-6-isobutyl-4-methyl-7,8-dihydro-6H-pyrido[4,3-d]pyrimidin-5-one]
18 | > 5.00 | Cc1nc(N)nc2c1C(=O)N(CC(C)C)[C@@H](c1ccc(F)cc1-c1cccnc1F)C2 [Compound 157, (R)-2-Amino-7-[4-fluoro-2-(2-fluoro-pyridin-3-yl)-phenyl]-6-isobutyl-4-methyl-7,8-dihydro-6H-pyrido[4,3-d]pyrimidin-5-one]
19 | > 5.00 | COc1ncccc1-c1cc(F)ccc1[C@H]1Cc2nc(N)nc(C)c2C(=O)N1CC(C)C [Compound 158, (R)-2-Amino-7-[4-fluoro-2-(2-methoxy-pyridin-3-yl)-phenyl]-isobutyl-4-methyl-7,8-dihydro-6H-pyrido[4,3-d]pyrimidin-5-one]
20 | < 5.00 | COc1ccncc1-c1cc(F)ccc1[C@H]1Cc2nc(N)nc(C)c2C(=O)N1CC(C)C [Compound 159, (R)-2-Amino-7-[4-fluoro-2-(4-methoxy-pyridin-3-yl)-phenyl]-6-isobutyl-4-methyl-7,8-dihydro-6H-pyrido[4,3-d]pyrimidin-5-one]
21 | > 5.00 | COc1cccc(-c2cc(F)ccc2[C@H]2Cc3nc(N)nc(C)c3C(=O)N2Cc2ccc(F)cc2)n1 [Compound 160, (R)-2-Amino-6-(4-fluoro-benzyl)-7-[4-fluoro-2-(6-methoxy-pyridin-2-yl)-phenyl]-4-methyl-7,8-dihydro-6H-pyrido[4,3-d]pyrimidin-5-one]
22 | > 5.00 | COc1cncc(-c2cc(F)ccc2[C@H]2Cc3nc(N)nc(C)c3C(=O)N2Cc2ccc(F)cc2)n1 [Compound 161, (R)-2-Amino-6-(4-fluoro-benzyl)-7-[4-fluoro-2-(6-methoxy-pyrazin-2-yl)-phenyl]-4-methyl-7,8-dihydro-6H-pyrido[4,3-d]pyrimidin-5-one]
23 | > 5.00 | COc1nc(-c2cc(F)ccc2[C@H]2Cc3nc(N)nc(C)c3C(=O)N2Cc2ccc(F)cc2)cnc1N [Compound 162, (R)-2-Amino-7-[2-(5-amino-6-methoxy-pyrazin-2-yl)-4-fluoro-phenyl]-6-(4-fluoro-benzyl)-4-methyl-7,8-dihydro-6H-pyrido[4,3-d]pyrimidin-5-one]
24 | > 5.00 | COc1nc(-c2cc(F)ccc2[C@H]2Cc3nc(N)nc(C)c3C(=O)N2CC(C)C)cnc1N [Compound 163, (R)-2-Amino-7-[2-(5-amino-6-methoxy-pyrazin-2-yl)-4-fluoro-phenyl]-6-isobutyl-4-methyl-7,8-dihydro-6H-pyrido[4,3-d]pyrimidin-5-one]
25 | > 5.00 | COc1cncc(-c2cc(F)ccc2[C@H]2Cc3nc(N)nc(C)c3C(=O)N2Cc2cccnc2)n1 [Compound 164, (R)-2-Amino-7-[4-fluoro-2-(6-methoxy-pyrazin-2-yl)-phenyl]-4-methyl-6-pyridin-3-ylmethyl-7,8-dihydro-6H-pyrido[4,3-d]pyrimidin-5-one]
26 | < 5.00 | Cc1nc(N)nc2c1C(=O)N(CCCNC(=O)OC(C)(C)C)[C@@H](c1ccc(F)cc1Br)C2 [Compound 165, {3-[(R)-2-Amino-7-(2-bromo-4-fluoro-phenyl)-4-methyl-5-oxo-7,8-dihydro-5H-pyrido[4,3-d]pyrimidm-6-yl]-propyl}-carbamic acid tert-butyl ester]
27 | < 5.00 | Cc1nc(N)nc2c1C(=O)N(CCCN)[C@@H](c1ccc(F)cc1Br)C2 [Compound 166, (R)-2-Amino-6-(3-amino-propyl)-7-(2-bromo-4-fluoro-phenyl)-4-methyl-7,8-dihydro-6H-pyrido[4,3-d]pyrimidin-5-one]
28 | > 5.00 | Cc1nc(N)nc2c1C(=O)N(CCCNC(=O)OC(C)(C)C)[C@@H](c1ccc(F)cc1-c1cccnc1)C2 [Compound 167, {3-[(R)-2-Amino-7-(4-fluoro-2-pyridin-3-yl-phenyl)-4-methyl-5-oxo-7,8-dihydro-5H-pyrido[4,3-d]pyrimidin-6-yl]-propyl}-carbamic acid tert-butyl ester]
29 | > 5.00 | Cc1nc(N)nc2c1C(=O)N(CCCN)[C@@H](c1ccc(F)cc1-c1cccnc1)C2 [Compound 168, (R)-2-Amino-6-(3-amino-pnlpropyl)-7-(4-fluoro-2-pyridin-3-yl-phenyl)-4-methyl-7,8-dihydro-6H-pyrido[4,3-d]pyrimidin-5-one]
30 | > 5.00 | Cc1nc(N)nc2c1C(=O)N(CCCNC(=O)OC(C)(C)C)[C@@H](c1ccc(F)cc1-c1cccnc1F)C2 [Compound 169, (3-{(R)-2-Amino-7-[4-fluoro-2-(2-fluoro-pyridin-3-yl)-phenyl]-4-methyl-5-oxo-7,8-dihydro-5H-pyrido[4,3-d]pyrimidin-6-yl}-propyl)-carbamic acid tert-butyl ester]
